As usually defined, the IC50 is the midpoint of a concentration-inhibition curve.

The subject of the first experiment is Human Jurkat T-cells (clone N). Description: Jurkat T-cell activation (anti-TCR, CD69 upregulation). Format: cell-based.
Details: not given
In short, it runs like this:
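Jurkat cells in RPMI + 5% FBS preincubated with compound 1 h at 37 °C, then stimulated with anti-TCR C305 at 500 ng/ml for 20 h. CD69 surface expression stained with anti-CD69-APC and read by flow cytometry; IC50 versus solvent-only control.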
Compound `Cc1cc(Nc2nc(Nc3cccc(OCCN4CCOCC4)c3)ncc2F)cc(C)c1O` [Compound R940256] gave an IC50 of 4.75 µM.
Same read-out and setting: for `O=C(COc1cccc(Nc2ncc(F)c(Nc3ccc4c(c3)OCCO4)n2)c1)N1CCNCC1` [Compound R926503] the value was 2.6 µM; for `Fc1cnc(Nc2ccc3cn[nH]c3c2)nc1Nc1ccc(OC(F)(F)F)c(Cl)c1` [Compound R935368], greater than 10 µM.
Same read-out and setting: the result for `CNC(=O)COc1cccc(Nc2ncc(F)c(Nc3cccc(NCCO)c3)n2)c1` [Compound R950265] reads 0.982 µM.
Same read-out and setting: for `CNC(=O)COc1cccc(Nc2ncc(F)c(Nc3cc(OC)cc(C(F)(F)F)c3)n2)c1` [Compound R926833] the value was 11.8 µM.
`O=C(COc1cccc(Nc2ncc(F)c(Nc3cccc(O)c3)n2)c1)N1CCNCC1` [Compound R926772] registered a concentration for half-maximal inhibition (IC50) of 2.04 µM.
The same measure, in the same setting: the result for `CNC(=O)COc1ccc(Nc2ncc(F)c(Nc3ccc4c(c3)OCCO4)n2)cc1` [Compound R909240] reads 2.85 µM.
Same read-out and setting: the result for `CC1(C)CN(c2ccccn2)c2cc(Nc3nc(Cl)ncc3F)ccc2O1` [Compound R940336] reads greater than 10 µM; that for `CNC(=O)COc1cccc(Nc2ncc(F)c(Nc3cc(C)ccc3Cl)n2)c1` [Compound R926840], 12.2 µM; that for `CCOC(=O)COc1cccc(Nc2ncc(F)c(Nc3cccc(C(C)(C)C)c3)n2)c1` [Compound R940270], greater than 10 µM.
Same read-out and setting: the result for `OCCCn1ncc2ccc(Nc3ncc(F)c(Nc4ccc5c(c4)OCCO5)n3)cc21` [Compound R935287] reads 1.7 µM; that for `CNC(=O)COc1cccc(Nc2ncc(F)c(Nc3cccc(SC(F)(F)F)c3)n2)c1` [Compound R926925], 5.87 µM; that for `NC(=O)COc1ccc(Nc2nc(Nc3ccc4c(c3)OCCO4)ncc2F)cc1` [Compound R945171], 3.19 µM.
`CNC(=O)COc1ccc(Nc2ncc(F)c(Nc3ccc4c(c3)OCCCO4)n2)cc1` [Compound R935184] registered a concentration for half-maximal inhibition (IC50) of 4.08 µM.
Compound `CNC(=O)COc1cc(Nc2ncc(F)c(Nc3cccc(O)c3)n2)ccc1C` [Compound R926757] registered an IC50 of 2.74 µM. This IC50 and that of the compound before are within 1.5-fold of each other.
Same read-out and setting: for `CCOC(=O)COc1cccc(Nc2nc(Nc3cccc(O)c3)ncc2F)c1` [Compound R926775] the value was greater than 10 µM.
Still for that read-out and setting: for `O=C(c1cccc(Nc2ncc(F)c(Nc3ccc4cc[nH]c4c3)n2)c1)N1CCOCC1` [Compound R926934] the value was 6.01 µM; for `COc1cc(-c2ccccc2)c(C)cc1Nc1ncc(C)c(Nc2cc(C)c(-c3ccccc3)cc2OC)n1` [Compound R935003], greater than 10 µM; for `COC(=O)COc1cc(Nc2ncc(F)c(Nc3cccc(O)c3)n2)cc(OCC(=O)OC)c1` [Compound R926926], 13.1 µM.
On the same count and under the same terms, for `CC(CO)Nc1cccc(Nc2ncc(F)c(Nc3cccc(NC(C)CO)c3)n2)c1` (stereo not shown) [Compound R950171] the value was 4.36 µM; for `CNC(=O)COc1cccc(Nc2ncc(F)c(Nc3ccc4c(c3)C(N=[N+]=[N-])CCO4)n2)c1` (stereo not shown) [Compound R950383], 1.03 µM.
In turn, `CN1CCN(C(=O)CNc2cccc(Nc3ncc(F)c(Nc4cccc(O)c4)n3)c2)CC1` [Compound R950223] yielded an IC50 of 2.77 µM. This IC50 is about 2.7-fold higher than that of the compound before.
On the same count and under the same terms, the result for `COC(=O)Cn1ncc2ccc(Nc3ncc(F)c(Nc4ccc5cnn(CC(=O)OC)c5c4)n3)cc21` [Compound R935205] reads 10.7 µM; that for `Cc1noc(COc2ccc(Nc3ncc(F)c(Nc4ccc5c(c4)OCCO5)n3)cc2)n1` [Compound R935143], 3.84 µM; that for `COCc1cc(=O)oc2cc(Nc3ncc(F)c(Nc4ccc5c(COC)cc(=O)oc5c4)n3)ccc12` [Compound R926620], greater than 10 µM.
On the same count and under the same terms, for `CCOC(=O)CCn1ncc2ccc(Nc3ncc(F)c(Nc4ccc5c(c4)OCCO5)n3)cc21` [Compound R935286] the value was 2.5 µM.
`CNC(=O)CNc1cccc(Nc2ncc(F)c(Nc3cccc(O)c3)n2)c1` [Compound R950218] gave an IC50 of 3.43 µM.
In the case of `CNC(=O)COc1cccc(Nc2ncc(F)c(Nc3cccc(C(C)C)c3)n2)c1` [Compound R940288], the IC50 was 3.48 µM.

The experiment is the same for the next values; noted with them: Homo sapiens, Jurkat.
For the compound `Nc1nc(N(CC(O)c2ccccc2)c2ccc3c(c2)OCCO3)ncc1F` (stereo not shown) [Compound R925765], the IC50 was greater than 10 µM.
The same measure, in the same setting: for `Clc1cccc(-c2cnc(Nc3ccc4c(c3)OCCO4)nc2Nc2ccc3c(c2)OCCO3)c1` [Compound R925787] the value was greater than 10 µM; for `COc1ccc(Nc2nc(Nc3cccc(O)c3)ncc2F)cc1OC` [Compound R926147], greater than 10 µM; for `C=CCNc1ncc(F)c(Nc2ccc3c(c2)OCCO3)n1` [Compound R925823], 9.33 µM.
Still for that read-out and setting: the result for `Cc1ccc(CNc2ncc(F)c(Nc3ccc4c(c3)OCCO4)n2)cc1Cl` [Compound R908696] reads greater than 10 µM; that for `COc1cc(Nc2ncc(F)c(Nc3cccc(O)c3)n2)cc(OC)c1OC` [Compound R926761], 0.694 µM; that for `COc1ccc(Nc2ncc(F)c(Nc3ccc4c(c3)OCCO4)n2)c(C)c1` [Compound R926845], greater than 10 µM.
For the compound `Fc1cnc(NC(c2ccccc2)c2ccccc2)nc1NC(c1ccccc1)c1ccccc1` [Compound R935005], the IC50 is greater than 10 µM.
Still for that read-out and setting: for `COC(=O)c1cc2cc(Nc3ncc(F)c(Nc4cccc(N)c4)n3)ccc2o1` [Compound R950162] the value was 8.92 µM; for `Cc1ccc(Nc2ncc(F)c(Nc3ccc(C)cc3)n2)cc1` [Compound R926225], greater than 10 µM; for `Oc1cccc(Nc2nc(Nc3cccc(-c4cnco4)c3)ncc2F)c1` [Compound R926831], 1.27 µM.
Same read-out and setting: the result for `CCOC(=O)C1CCN(C(=O)c2cccc(Nc3ncc(F)c(Nc4cccc(O)c4)n3)c2)CC1` [Compound R926939] reads greater than 10 µM.
Take `Fc1cnc(NCC2COc3ccccc3O2)nc1Nc1ccc2c(c1)OCCO2` (stereo not shown) [Compound R950206]: the IC50 was greater than 10 µM.
Same read-out and setting: for `C=CCNc1ncc(Br)c(Nc2cccc(O)c2)n1` [Compound R925822] the value was greater than 10 µM; for `OCCNc1ncc(F)c(Nc2ccc3c(c2)OCCO3)n1` [Compound R925746], greater than 10 µM; for `CC(C)Oc1ccc(Nc2ncc(F)c(Nc3ccc(OC(C)C)cc3)n2)cc1` [Compound R926701], greater than 10 µM.
For the compound `Nc1cc(Nc2ncc(F)c(Nc3cc(N)cc(C(F)(F)F)c3)n2)cc(C(F)(F)F)c1` [Compound R950140], 22.4 µM corresponded to half-maximal inhibition (IC50).
On the same count and under the same terms, for `Cc1cc(Nc2ncc(F)c(Nc3ccc4c(c3)OCCO4)n2)c(C)cc1O` [Compound R926792] the value was 9.97 µM; for `O=C(c1ccccc1)c1cccc(Nc2ncc(F)c(Nc3cccc(C(=O)c4ccccc4)c3)n2)c1` [Compound R950377], 5.96 µM; for `COc1cc(Nc2ncc(F)c(Nc3ccc(C(=O)O)c(OC)c3)n2)ccc1C(=O)O` [Compound R945068], greater than 10 µM.
Same read-out and setting: for `Fc1cnc(Cl)nc1Nc1cccc(-c2nnc(-c3ccccc3)o2)c1` [Compound R926869] the value was greater than 10 µM.
Still for that read-out and setting: the result for `Cc1cnc(Nc2ccccc2-c2ccccc2)nc1Nc1ccccc1-c1ccccc1` [Compound R926404] reads greater than 10 µM; that for `Oc1cccc(Nc2cc(Cl)nc(Nc3cccc(O)c3)n2)c1` [Compound R926408], greater than 10 µM; that for `Fc1cnc(Nc2ccc3c(c2)OCCO3)nc1NCc1csc2ccc(Cl)cc12` [Compound R926721], 3.46 µM.

The record behind these values is patent US8158621B2, “Methods of treating or preventing autoimmune diseases with 2,4-pyrimidinediamine compounds” (Rigel Pharmaceuticals, Inc., priority 2002, dated 2012).
